Data set [1] is described as follows: Stability in rat plasma (LC/MS). The format is in vitro ADME. Conditions: 37° C. As to the method:
Peptide solution was added to rat plasma such that the final peptide concentration is 50 μg/mL, and then incubated for arbitrary time period (0.5 to 6 hours) at 37° C. After the arbitrary time period, sampling was carried out and high performance liquid chromatography mass spectrometry (LC/MS) was performed under the following conditions followed by stability analysis.
LC/MS System: LC-MS2020 (SHIMADZU CORPORATION)
Column: TSKgel ODS-100V (Tosoh Corporation, 3.0 μm, 2.0 mm×75 mm)
Mobile layer: 0.1% trifluoroacetic acid (pH 2.5):acetonitrile=2:1
Column temperature: 40° C.
Detection: ESI^+, m/z=425.

Data set [2] concerns ddy male mouse. In words: Suppression of increase in prolactin concentration in blood under restraint stress. The format is in vivo. Conditions: 200 μg/5 μL intranasal, restraint stress 20 minutes, ELISA. As to the method:
Peptide solution (200 μg/5 μL) or physiological saline (5 μL) was administered to the nasal cavity of a ddY male mouse. After 20 minutes, restraint stress (i.e., addition to the inside of a tube) was applied for 20 minutes and blood was taken by cutting off the animal head. Then, the PLT concentration in plasma was analyzed by using Mouse Prolactin DuoSet ELISA (R&D systems).
Furthermore, for a ddY male mouse which has not been administered with the peptide solution (200 μg/5 μL) or physiological saline (5 μL), and also not applied with any stress, the PLT concentration in plasma was analyzed in the same manner as above.

The target of another data set is T1, mNMUR2 (Mus musculus, UniProt Q8BZ39).
T1 construct: expressed in transfected cells; host or cells: HEK293 cells (transient transfection with FuGENE6)
T1 sequence (Q8BZ39 whole entry): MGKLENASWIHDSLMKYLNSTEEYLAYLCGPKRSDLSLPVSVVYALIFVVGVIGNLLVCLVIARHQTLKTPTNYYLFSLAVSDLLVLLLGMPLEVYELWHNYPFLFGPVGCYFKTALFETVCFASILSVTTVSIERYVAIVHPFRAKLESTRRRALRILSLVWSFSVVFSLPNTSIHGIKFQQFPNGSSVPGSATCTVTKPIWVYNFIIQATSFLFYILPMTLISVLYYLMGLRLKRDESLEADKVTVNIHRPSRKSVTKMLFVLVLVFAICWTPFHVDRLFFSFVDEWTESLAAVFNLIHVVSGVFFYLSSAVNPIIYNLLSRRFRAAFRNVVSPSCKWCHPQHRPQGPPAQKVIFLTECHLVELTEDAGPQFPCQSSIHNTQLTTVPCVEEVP
Briefly: In vitro agonist activity for mouse neuromedin U receptor (intracellular calcium, Fluo-4, transfected HEK293 cells). Conditions: at a concentration of 100 nM, versus mNMUR1. The format is cell-based. As to the method: For CPN-219 which has been synthesized in Synthesis Example 1, evaluation of the agonist activity for type 1 and type 2 mouse neuromedin U receptor (mNMUR1 and mNMUR2) was carried out according to the following method.
HEK293 cells derived from human embryonic kidney were cultured in a 5% (v/v) CO2 incubator at 37° C. by using DMEM-high glucose (GIBCO (registered trademark), Thermo Fisher Scientific Inc.) medium containing 10% (v/v) FCS.
Cells were sown on a 100 mm dish at 5.0×10^5 cells (10 mL DMEM+10% FBS), and then cultured for 18 hours. After the culture, by using FuGENE6 (Promega Corporation), the cultured cells were transfected with an expression plasmid which encodes mNMUR1 or mNMUR2 (2.5 μg). The cells were cultured for 18 hours. […]
On the next day, 100 μL of Fluo-4 AM (Promega Corporation) solution as a fluorescent indicator of intracellular calcium concentration was added to each well, in which the solution has been prepared such that it has the final concentration of 4 μM in assay buffer (HBSS, 10 mM HEPES, 2.5 mM probenecid, 1% FCS: pH 7.4). After culture for 40 minutes at 37° C., the cells were washed 4 times with the assay buffer and set in a fluorometric imaging plate reader (Molecular Devices, LLC.). […]

Data set [3] concerns ddy male mouse. Briefly: Fluctuation in corticosterone concentration in blood. The format is in vivo. Particulars: 200 μg/5 μL intranasal, after 5 minutes. As to the method: Peptide solution (200 μg/5 μL) or physiological saline (5 μL) was administered, either intranasally or peritoneally, to a ddY male mouse. After 5 minutes, blood was taken from the caval vein, and corticosterone concentration in plasma was analyzed according to the LC/MS analysis. Furthermore, as a control, without administering the peptide solution (200 μg/5 μL) or physiological saline (5 μL), blood was taken […] from the caval vein, and corticosterone concentration in plasma was analyzed according to the LC/MS analysis. The LC/MS analysis was carried out under the same conditions as above.

The target of the next data set is T2, hNMUR2 (Homo sapiens, UniProt Q9GZQ4).
T2 construct: expressed in transfected cells
T2 sequence (Q9GZQ4 whole entry): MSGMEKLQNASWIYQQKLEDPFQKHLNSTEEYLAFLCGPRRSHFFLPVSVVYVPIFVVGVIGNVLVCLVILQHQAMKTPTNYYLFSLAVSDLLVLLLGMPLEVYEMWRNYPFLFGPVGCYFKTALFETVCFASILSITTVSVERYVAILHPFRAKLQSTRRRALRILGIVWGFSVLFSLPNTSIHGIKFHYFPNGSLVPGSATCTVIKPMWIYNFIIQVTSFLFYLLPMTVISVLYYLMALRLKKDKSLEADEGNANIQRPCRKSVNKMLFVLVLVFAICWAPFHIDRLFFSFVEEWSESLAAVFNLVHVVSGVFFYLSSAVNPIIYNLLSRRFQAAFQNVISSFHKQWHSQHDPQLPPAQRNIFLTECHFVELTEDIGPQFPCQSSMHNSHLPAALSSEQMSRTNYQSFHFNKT
In words: In vitro agonist activity for human neuromedin U receptor (intracellular calcium, Fluo-4, CHO cells stably expressing the receptor). The format is cell-based. Particulars: at a concentration of 100 nM; versus hNMUR1; selective = relative agonist activity for NMUR1 18% or less at 1000 nM and for NMUR2 48% or more at 100 nM. As to the method: For CPN-219 which has been synthesized in Synthesis Example 1, evaluation of the agonist activity for type 1 and type 2 human neuromedin U receptor (hNMUR1 and hNMUR2) was carried out according to the following method.
CHO cells derived from Chinese hamster ovary which stably express hNMUR1 or hNMUR2 were cultured in a 5% (v/v) CO2 incubator at 37° C. by using MEM alpha (GIBCO (registered trademark), Thermo Fisher Scientific Inc.) medium containing 1 mg/mL G418 (NACALAI TESQUE, INC.), 10% (v/v) fetal bovine serum (FCS) and nucleosides (adenosine 10 mg/L, cytidine 10 mg/L, guanosine 10 mg/L, uridine 10 mg/L, 2′-deoxyadenosine 10 mg/L, 2′-deoxycytidine hydrochloride 11 mg/L, 2′-deoxyguanosine 10 mg/L, thymidine 10 mg/L).
The CHO cells were sown on a 96 well black-walled plate with clear bottom (Iwaki: AGC TECHNO GLASS CO., LTD.) at 2.0×10^4 cells per well (150 μL DMEM+10% (v/v) FBS), and then cultured for 18 hours.
After the culture, 100 μL of Fluo-4 AM (Promega Corporation) solution as a fluorescent indicator of intracellular calcium concentration was added to each well, in which the solution has been prepared such that it has the final concentration of 4 μM in assay buffer (HBSS, 10 mM HEPES, 2.5 mM probenecid, 1% (v/v) FCS: pH 7.4). After culture for 40 minutes at 37° C., the cells were washed 4 times with the assay buffer and set in a fluorometric imaging plate reader (Molecular Devices, LLC.).
The peptide as a test sample was dissolved by using dimethyl sulfoxide (DMSO) such that the stock solution is present at 20 mM, and then it was stored at 4° C. One hour before addition to the cells, by using an assay buffer added with 0.05% (v/v) bovine serum albumin (BSA) and […] Triton (registered trademark) X-100, preparation to arbitrary final concentration was made (10^−12 to 10^−6 M), and the fluorescence based on the activity of recruiting intracellular calcium by the peptide (i.e., agonist activity) was measured by using a fluorometric imaging plate reader.
A general note: Calcium assays in cells follow changes in intracellular calcium, usually with a dye or a luminescent sensor.

Data set [4] concerns ddy male mouse. Briefly: Suppression of body weight gain and food intake upon intranasal administration to a mouse. Particulars: 64 μg or 213 μg once intranasally, Day 1 to 5, versus physiological saline. The format is in vivo. As to the method:
CPN-219, each dissolved at 64 μg or 213 μg in physiological saline (5 μL), was administered once to the nasal cavity of a ddy male mouse under anesthetization. As a control, physiological saline (5 μL) was administered once to the nasal cavity. For each administration group, the body weight of a mouse and food intake amount were measured immediately before the administration, each of Day 1 to 5 from immediately after the administration.
The body weight of a mouse was 29.0±0.83 g for the group with intranasal administration of 64 μg, or 27.7±1.29 g for the group with intranasal administration of 213 μg.

Data set [5] can be described thus: Brain delivery upon intranasal administration to a mouse. The format is in vivo. Particulars: ddY male mouse, 200 μg/5 μL intranasal, after 5 minutes; compared to CPN-116. As to the method: Peptide solution (200 μg/5 μL) was administered to the nasal cavity of a ddY male mouse. After 5 minutes, the animal was sacrificed and the brain tissues were collected. According to the LC/MS analysis, concentration of the peptide in plasma and brain was analyzed, and the ratio of concentration in brain compared to concentration in plasma was analyzed. The LC/MS analysis was carried out under the same conditions as above.

Data set [6] is described as follows: Pharmacokinetics of peptides in rat after administration via jugular vein. The format is in vivo. Particulars: Wistar rat, 500 μg/200 μL via jugular vein, 1 to 240 minutes; compared to CPN-116. As to the method:
The peptide solution (500 μg/200 μL) was administered via jugular vein of a Wistar rat. After arbitrary time period (1 to 240 minutes), blood was taken from the femoral artery which has been subjected to cannulation in advance. According to the LC/MS analysis, pharmacokinetics of the peptide was analyzed. The LC/MS analysis was carried out under the same conditions as above.

Data set [7] is described as follows: Stability in phosphate buffer solution (HPLC recovery rate). The format is physicochemical. As to the method:
Peptide solution was prepared (1 mL) by using a 100 mM phosphate buffer solution (pH 7.4) so as to have the final concentration of 1 mM, and then the peptide solution was incubated for arbitrary time period (1 to 72 hours) in a water bath at 37° C. After the arbitrary time period, sampling was carried out and 20 μL of injection into high performance liquid chromatography (HPLC) (column: COSMOSIL (registered trademark) Cholester Packed Column 4.6 mmI.D.×150 mm; gradient: % B 25-35, 30 min [A: H2O-0.1% (v/v) TFA; B: MeCN]; flow rate: 1.0 mL/min; measurement wavelength: 220 nm) was made. Then, by taking the obtained area value as an indicator, the stability was analyzed from the recovery rate (%) of the compound.

Where [8] appears, read: 2 hours, read-out: recovery rate in rat plasma after 2 hours.
The mark [9] stands for this setting: 100 mM phosphate buffer solution pH 7.4, 37° C., after 48 hours.

“Also recorded” adds a separate entry of the source. Where a SMILES comes first, the peptide text is derived from it. [ ]: non-standard residue; d: D form. The star is where a group is joined. Propanoyl(3-cHex) = O=C(CCC1CCCCC1)*; Orn = NCCC[C@H](N)C(=O)O; Dab = NCC[C@H](N)C(=O)O; Dap = NC[C@H](N)C(=O)O

In the case of `CC(C)C[C@H](NC(=O)CCC1CCCCC1)C(=O)N[C@@H](CC(C)C)C(=O)N[C@@H](CCN)C(=O)N1CCC[C@H]1C(=O)N[C@@H](CCCNC(=N)N)C(=O)N[C@@H](CC(N)=O)C(N)=O` [CPN-219, 3-Cyclohexylpropionyl-Leu-Leu-Dbu-Pro-Arg-Asn-NH2] ({Propanoyl(3-cHex)}-LL[Dab]PRN-NH2), the recovery at 2 hours, 50 μg/mL in data set [1] (setting [8]) was at least 80%. Moreover, the recovery at 6 hours, 50 μg/mL in [1] (6 hours, read-out: recovery rate in rat plasma after 6 hours) was at least 60%. The “prolactin secretion (PLT concentration in plasma)” value in the data set with ddy male mouse [2] is listed as “suppresses the prolactin secretion”. For the same compound, the “mNMUR2 selective agonist activity” value on mNMUR2 is given as “exhibited the mNMUR2 selective agonist activity”. In addition, the “corticosterone concentration in blood” value with ddy male mouse [3] is recorded as “significantly increased the corticosterone concentration in blood”. Also, the “hNMUR2 selective agonist activity” value on hNMUR2 is “exhibited the NMUR2 selective agonist activity”. In the data set on ddy male mouse [4], the “body weight gain of a mouse” value is recorded as “significantly suppressed the body weight gain” and the “food intake of a mouse” value is reported as “significantly suppressed”. Besides, the “brain delivery (ratio of concentration in brain to concentration in plasma; transfer to olfactory bulb)” value in data set [5] is listed as “more favorable transfer to an olfactory bulb”. In [6], the “pharmacokinetics in rat blood” value is “more favorable pharmacokinetics in rat blood”.

For `CC(C)C[C@H](NC(=O)CCC1CCCCC1)C(=O)N[C@@H](CC(C)C)C(=O)N[C@@H](CN)C(=O)N1CCC[C@H]1C(=O)N[C@@H](CCCNC(=N)N)C(=O)N[C@@H](CC(N)=O)C(N)=O` [CPN-116, 3-Cyclohexylpropionyl-Leu-Leu-Dpr-Pro-Arg-Asn-NH2] ({Propanoyl(3-cHex)}-LL[Dap]PRN-NH2), the recovery at 2 h, 50 μg/mL in data set [1] (setting [8]) was at most 3%. Also, the “converted to CPN-220 in phosphate buffer solution” value in data set [7] (setting [9]) is recorded as at least 70%. Further, in [7] (100 mM phosphate buffer solution, conclusion from Test Examples 11 and 12), the “chemical stability (in words)” value was “chemically unstable”.

Take “3-Cyclohexylpropionyl-Leu-Leu-Orn-Pro-Arg-Asn-NH2 ({Propanoyl(3-cHex)}-LL[Orn]PRN-NH2; SMILES CC(C)C[C@H](NC(=O)CCC1CCCCC1)C(=O)N[C@@H](CC(C)C)C(=O)N[C@@H](CCCN)C(=O)N1CCC[C@H]1C(=O)N[C@@H](CCCNC(=N)N)C(=O)N[C@@H](CC(N)=O)C(N)=O) [CPN-221]”: the “hNMUR2 selective agonist activity” value in the data set with hNMUR2 is on record as “exhibited the hNMUR2 selective agonist activity”.

“3-Cyclohexylpropionyl-Leu-Leu-Dpr-Pro-Arg-Asn-NH2 ({Propanoyl(3-cHex)}-LL[Dap]PRN-NH2) [CPN-220]”: the “hNMUR2 selective agonist activity” value with hNMUR2 was “did not exhibit the hNMUR2 selective agonist activity; also recorded: does not show the hNMUR2 selective agonist activity”. The “converted to CPN-116 in phosphate buffer solution” value in data set [7] (setting [9]) is at least 25%.

(Values after patent publication US10550153B2, “Peptide or pharmaceutically acceptable salt thereof, or prodrug thereof” (Tokyo University of Pharmacy & Life Sciences, priority 2017, dated 2020).)
